Entries after “also recorded” stand apart in the source; their conditions may differ. Read-outs that look alike come from different tables or passages of the source.

For series [1], the system named is bovine aortic endothelial cells. The conditions noted are these: cited from earlier work.
A further series relates to endothelial HMEC cells. Particulars: incubation with sodium or potassium iodide; cited from earlier work.
A short description of series [2]: Photostability: iodide formed after UV light irradiation. Format: physicochemical. The conditions noted are these: pH 8. On the procedure: Aqueous solutions comprising iodinated contrast agents were prepared and evaluated in a photolysis chamber as described in the ICH guidance document, Q1B Photostability Testing of New Drug Substances and Products, available from the US Food and Drug Administration, incorporated herein by reference. The solutions were placed in 1 cm×1 cm (3 mL) quartz cuvettes having 2 clear sides and 2 sides etched. Lids were placed on the cuvettes and sealed with a wrap of Parafilm® around the joint. The cuvettes were placed in a photolysis chamber, upright on a flat surface beneath and centered between two horizontal 24 inch fluorescent lamps, (GE, black light F20T12, 20 watt for ultraviolet, or Philips F20T12/CW, 20 watt for visible) placed 6 cm apart. The cuvettes were positioned such that their two clear sides were facing the two lamps.
Cuvettes were spaced ˜2 cm from each other, and no closer than 15 cm from the ends of the lamps. This positioning allowed reproducible light exposure to all cuvettes.
(§1) The lamps were switched on and the solutions irradiated for 18 to 24 hours for the ultraviolet (UV) lamps or 72 to 90 hours for the visible (VIS) light lamps. At the end of the selected irradiation time, the cuvettes were removed from the photolysis chamber and mixed by inversion 2-times. The caps were then removed and 40 microliter aliquots taken and diluted with 1 mL of an aqueous solution containing ˜0.9 mg/mL sodium thiosulfate. The thiosulfate solution converted any I2, IO3^−, and I3^− present in the solution tor such that total iodine species could be determined in one assay.
(§2) The diluted solutions were assayed by high pressure liquid chromatography (HPLC) using a 4.6×250 mm, C-18, 5 micron particle size, reversed phase column with detection at 280 nm for the contrast agent and 230 nm for the thiosulfate and the iodide ion (r). A mobile phase of 30:70 methanol:aqueous buffer (50 mM KH2PO4+7 mL/L 40% tetrabutyl ammonium hydroxide) at 0.75 mL/min was used for elution. Injection volume was 20 microliters. External standards were prepared containing each contrast agent, potassium iodide, and sodium thiosulfate solution and analyzed along with the irradiated samples. The results were reported as weight percentage iodide formed (mg iodide/mg contrast agent times 100).
The absorbance readings at 400 nm due to light exposure were plotted against time of exposure and the resulting correlation used to determine the UV and VIS light exposure. A change in absorbance reading of 0.45 was assumed equivalent to 200 watt hours/square meter for the UV light and a change of 0.51 was assumed equivalent to 1.2 million lux hours for the VIS light. The UV lamps provided 6.62 watts/square meter and the VIS lamps provided 7180 lux.
Aqueous solutions were prepared containing 50 mM contrast agent by diluting commercially available solutions with water. Tromethamine HCl buffer (TRIS), was added to solutions as necessary to increase the TRIS content to that of the commercial product before dilution.
SCD was added to the solutions at various mole ratios and the pH of the solutions adjusted to 7.4 with 0.1N hydrochloric acid or 0.1N sodium hydroxide. The solutions were irradiated with UV light for 18 hours (119 watt hours/m^2) then processed, analyzed and reported as in Example 2. The SCDs evaluated were sulfobutyl ether beta-cyclodextrin with an average degree of substitution of 7 (SBE-704CD), and two 2-hydroxypropyl beta-cyclodextrin derivatives having 6.3 (HP-6.3n/CD) and 4.3 (HP-4.3-βCD) average degrees of substitution.
Aqueous solutions were prepared containing 50 mM contrast agent by diluting commercially available solutions with distilled water. Tromethamine HCl buffer (TRIS), was added to some solutions to increase the buffer content.
The solutions were divided and SBE-7-CD added to one aliquot at a contrast agent:SCD mole ratio of 1:1. The pH of the solutions was adjusted to 5, 6, 7, 7.4 or 8 with 0.1N hydrochloric acid or sodium hydroxide. […]

Series [3] is classed as physicochemical. On the procedure:
as §1, §2
Aqueous solutions were prepared containing 50 mM iodinated contrast agent, 10 mM tromethamine HCl buffer (TRIS), with and without sulfobutylether beta-cyclodextrin with an average degree of substitution-7 (SBE7-β-CD), or 2-hydroxypropyl beta-cyclodextrin with an average degree of substitution of ˜6.3 (HP6.3-β-CD) or ˜4.3 (HP4.3-β-CD). The iohexol solution was prepared by dissolving solid iohexol powder while the other solutions were prepared by diluting commercial formulated products and adding sufficient TRIS buffer to reach 10 mM. The pH of the solutions was adjusted to 7.4 with 0.1N hydrochloric acid.
Aliquots of the solutions were irradiated with visible light for 72 hours (0.52 million lux hours). Other aliquots were autoclaved for 20 minutes at 121° C., cooled to room temperature and then irradiated with ultraviolet light for 18 hours (119 watt hours/m2). The solutions were then processed, analyzed and reported as in Example 2, except that the chromatographic peaks of the contrast agents were evaluated at 300 nm for both samples and standards.
Aqueous solutions were prepared containing 50 mM iohexol, 0, 2.5, 5, 7.5, or 10 mM tromethamine HCl (TRIS) buffer, with and without 2.5 mM sulfobutylether beta-cyclodextrin with an average degree of substitution-7 (SBE7-β-CD). The pH of the solutions was adjusted to 7.4 with 0.1N hydrochloric acid and the solutions were transferred to glass vials. The vials were stoppered, crimp-capped and autoclaved for 20 minutes at 121° C. The pH of the autoclaved solutions was measured after the solutions were at room temperature.
Aliquots of the autoclaved solutions were irradiated with visible light for 72 hours (0.52 million lux hours) and other aliquots irradiated with ultraviolet light for 18 hours (119 watt hours/m2). The solutions were then processed, analyzed and reported as in Example 2, except that the chromatographic peak of the iohexol was evaluated at 300 nm for both samples and standards.
Aqueous formulations were prepared containing iodinated contrast agents at concentrations used commercially in medical procedures. Sulfobutylether-cyclodextrin, sodium salt, average degree of substitution ˜7 (SBE7CD) was added at varying agent:CD mole ratios. The formulations were placed in glass vials, sealed with rubber stoppers and aluminum crimps, and autoclaved at 121° C. for 20 minutes. […]

For a further series, the system named is Beagle dog. Kind of series: Cardiovascular electrophysiology and hemodynamics after injection into the left main coronary artery. Format: in vivo. On the procedure:
Aqueous formulations were prepared containing 755 mg/mL iohexol without (formulation 1) or with (formulation 2) sulfobutylether β-cyclodextrin, sodium salt (average degree of substitution-7) at an iohexol:SCD mole ratio of 1:0.025. The addition of the SCD added 154 mM sodium to the solution as its counterion. The formulations also contained 0.1 mg/mL edetate calcium disodium hydrate, and 1.2 mg/mL tromethamine buffer, with the pH of each solution adjusted to 7.4 with 1N HCl. The solutions were sterilized by filtration through a 0.22 micron filter. […]
The instrumentation provided measurement of right heart pressure, left ventricular pressure, aortic pressure, cardiac output and electrocardiography (ECG). The specific parameters measured were: systolic artery pressure (SAP), mean aortic pressure (MAP), diastolic aortic pressure (DAP), left ventricular systolic pressure (LVSP), left ventricular end diastolic pressure (LVEDP), left ventricle dP/dtmax (an indirect measure of contractile force), left ventricle dP/dtmin, cardiac output (CO), systemic vascular resistance (SVR), pulmonary vascular resistance (PVR), pulmonary artery pressure (PAP), monophasic action potential duration (MAPD30%, 50%, 90%), heart rate (HR), and from the ECG; PR interval, QRS duration, QT/QTc interval, JT/JTc interval (as needed) and arrhythmogenesis.

For series [4] the following is noted: contrast media solutions; cited from earlier work.

Consider `CN(C(=O)CO)c1c(I)c(C(=O)NCC(O)CO)c(I)c(C(=O)NCC(O)CO)c1I` (stereo not drawn) [iomeprol], for which the “toxicity to bovine aortic endothelial cells” value in series [1] (X-ray irradiated contrast agent) is “toxic to bovine aortic endothelial cells”; in series [1] (non-irradiated contrast agent), “not toxic”.

Consider `I` [iodide], for which the “toxicity in cultured endothelial HMEC cells” value in the series with endothelial HMEC cells is reported as “causes toxicity”.

As for `CC(=O)N(CC(O)CO)c1c(I)c(C(=O)NCC(O)CO)c(I)c(C(=O)NCC(O)CO)c1I` (stereo not drawn) [Iohexol, iohexol], the “stabilization against photolysis by UV light” value in series [2] is “stabilized iohexol against photolysis by UV light”. In series [3], the “iodide degradant after UV irradiation in the presence of the SCD” value is listed as “Less of the iodide degradant was observed in the presence of the SCD” and the “stabilization against photolysis by visible light irradiation” value is recorded as “the SCD also stabilized the solutions against photolysis by visible light irradiation”. Further, the “qualitative alterations in electrocardiographic morphology” value with Beagle dog (concomitant with injection into the coronary artery) is “QRS complex widening along with ST segment depression; also recorded: Scattered premature ventricular contractions”. For the same compound, the “ECG morphology returned to normal after the last injection” value in the series on Beagle dog (intracoronary) is reported as “within five minutes”. Also, the “degradation in solution after exposure to ultraviolet light” value in series [4] was “formation of iodine and iodide ions”.

The values above are taken from patent US20220096664A1, “STABILIZED FORMULATIONS CONTAINING IODINATED CONTRAST AGENTS AND CYCLODEXTRINS” (Verrow Pharmaceuticals, Inc., priority 2012, published 2022).
